US8791158B2, “Methods of treating meibomian gland dysfunction” (GTX, Inc., priority 2010, dated 2014)

Columns and labels:
[1] = test system: acute, orchiectomized (ORX) rabbit model; assay: Tear fatty acid composition (palmitate:stearate ratio) after Compound 2 or TP, Example 3; type: in vivo; conditions: ORX rabbits; for Tear palmitate:stearate ratio after 4 week washout: then untreated 4 weeks
Source text: The goal of this study was to compare the effect of Compound 2 to testosterone propionate (TP) on tear composition in an acute, orchiectomized (ORX) rabbit model.
Fifteen New Zealand white rabbits weighing approximately 3 lbs were allowed to acclimate for 4 weeks before the start of the study. Animals were weighed on day 0 of the study, randomized according to body weight and allotted to the following dose groups:
Pre-dose tear and blood samples were collected. Animals from groups 2-5 were to premedicated with glycopyrrolate (0.02 mg/kg) and then anesthesia was induced with a combination of ketamine (15 mg/kg): medetomidine (0.25 mg/kg).
Anesthesia was maintained with isoflurane (1 liter/hr). Orchiectomy was performed using a scrotal incision. Animals were revived from anesthesia using atipamezole (1 mg/kg) SQ. Analgesia was provided with buprenorphine (0.05 mg/kg) Immediately after the animals had recovered from anesthesia, they received their first dose with the appropriate test articles as indicated above.
(§1) Drug dosing was done once daily for 14 days. Blood was collected at 60 minutes post administration of the last dose of drug and plasma separated for HPLC analysis of parent drug concentrations.
Tears were collected using Schirmer tear strips (Alcon, Tex.) on day 0 before surgery, 24 hours after the last administration of drug (day 15) and also at 42 days (6 weeks after start of study). The tears were stored at −80° C. prior to lipid analysis.
Lipids were hydrolyzed, extracted from the Schirmer strips, derivatized, and subjected to gas chromatography with flame ionization detector (GCFID) to evaluate the lipid composition.
The samples were evaluated for the presence of 28 saturated and unsaturated fatty acids that included methyl caprate (C10:0), methyl laurate (C12:0), methyl 11-dodecenoate (C12:1), methyl myristate (C14:0), methyl myristoleate (C14:1), methyl palmitate (C16:0), methyl palmitoleate (C16:1), methyl stearate (C18:0), methyl oleate (C18:1), methyl vaccenate (C18:1), methyl linoleate (C18:2), methyl gamma linoleate (C18:3), methyl linoleate (C18:3), methyl arachidate (C20:0), methyl 11-eicosenoate (C20:1), methyl 11,14 eicosadinoate (C20:2), methyl 8,11,14 eicosatrienoate (C20:3), methyl eicosapentaenoate (C20:5), methyl behenate (C22:0), methyl erucate (C22:1), methyl 13,16 docosaenoate (C22:2), methyl docosatetraenoate (C22:4), methyl docosapentaenoate (C22:5), methyl docosahexaenoate (C22:6), methyl lignocerate (C24:0), and methyl nervonate (C24:1).
The area under the curve for each individual peak was determined using GC ChemStation software. […] These samples were then washed with a saturated solution of NaCl+0.1% formic acid (FA). […] These samples were all in the predose tear group. Two more samples from the predose group and one sample from Vehicle Intact treated group had small but clear and well to separated peaks that were included in the analysis.
(§2) To normalize for the tear content, the lipid composition was expressed as a ratio of the lipid that was most affected by castration (palmitate) to one which remained relatively constant (stearate). Blood was also collected on day 15 (24 hours after last drug administration) of the study, plasma separated and analyzed for Compound 2.
The last dose of drug or vehicle was administered on day 15 of the study Animals were left untreated for 4 weeks (washout period) before tear samples were collected again on Schirmer tear strips and analyzed as indicated above.

[2] = Plasma concentration of Compound 2 after topical or subcutaneous dosing, Example 3; type: in vivo, rabbit; conditions: one hour after last dose, LCMS
Protocol: as §1, §2
Systemic exposures after topical and subcutaneous administration were determined in peripheral blood samples collected one hour after drug administration on the last day of the study. Plasma concentrations of Compound 2 were measured using LCMS. Mean plasma concentrations of Compound 2 following topical administration were 1177±398.72 nM, while mean levels were 1210±311.93 nM in animals that received subcutaneous (SQ) doses.

## C[C@](O)(COc1ccc(C#N)c(F)c1)C(=O)Nc1ccc(C#N)c(C(F)(F)F)c1 [Compound 2, (S)—N-(4-cyano-3-(trifluoromethyl)phenyl)-3-(4-cyano-3-fluorophenoxy)-2-hydroxy-2-methylpropanamide]
[1]; 2.5 mg/kg, 14 days
  Increase of tear palmitate:stearate ratio relative to intact animals: two times that of intact animals
[1]; SQ 2.5 mg/kg for two weeks
  Tear palmitate:stearate ratio after 4 week washout: 1.47±0.172
[1]; topical 2.5 mg/kg for two weeks
  Tear palmitate:stearate ratio after 4 week washout: 1.66±0.426
[2]; rabbit, plasma, subcutaneous 2.5 mg/kg
  concentration at 1 h: 1210 ± 312 nM
[2]; rabbit, plasma, topical 2.5 mg/kg
  concentration at 1 h: 1180 ± 399 nM
[2]; subcutaneous 2.5 mg/kg
  concentration at 1 h: 1210 nM
[2]; topical 2.5 mg/kg
  concentration at 1 h: 1177 nM
